# Experimental data from patent US9833497B2, “Human originated EGF domain proteins and use of the same” (CHENGDU SOURCEBIO LIMITED-LIABILITY COMPANY, priority 2013, dated 2017).
# Experiments:
# Format in all cases: cell-based
# E. coli DH5α = experiment: Antibacterial activity: MIC and growth curve against E. coli DH5α in 96-well plate; conditions: minimal inhibitory concentration against E. coli DH5α; 96-well plate, 5×10^5 CFU/mL, 37° C., judged after 8 h
# How it was run: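 Log-phase bacteria (OD600 ~0.5) resuspended in LB at 5×10^5 CFU/mL, exposed to recombinant protein at 50, 25, 12.5 μg/mL final in triplicate, 37 °C shaking at 175 rpm. OD600 read every 30 min; MIC is lowest concentration showing no growth.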
# E. coli BL21 = experiment: MIC against Gram-negative bacteria: E. coli BL21; conditions: 5×10^5 CFU/mL
# How it was run: (§1)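 Broth microdilution, LB medium, final inoculum 5×10^5 CFU/mL from McFarland 0.5 cultures. Recombinant human EGF domain proteins tested in two-fold steps, n=3. MIC: lowest concentration, no growth.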
# Pseudomonas aeruginosa = experiment: MIC against Gram-negative bacteria: Pseudomonas aeruginosa; conditions: 5×10^5 CFU/mL
# How it was run: as §1
# Klebsiella pneumonia = experiment: MIC against Gram-negative bacteria: Klebsiella pneumonia; conditions: 5×10^5 CFU/mL
# How it was run: as §1
# Enterobacter cloacae = experiment: MIC against Gram-negative bacteria: Enterobacter cloacae; conditions: 5×10^5 CFU/mL
# How it was run: as §1
# Aeromonas hydrophila = experiment: MIC against Gram-negative bacteria: Aeromonas hydrophila; conditions: 5×10^5 CFU/mL
# How it was run: as §1
# Citrobacter diversus = experiment: MIC against Gram-negative bacteria: Citrobacter diversus; conditions: 5×10^5 CFU/mL
# How it was run: as §1
# Moraxella catarrhalis = experiment: MIC against Gram-negative bacteria: Moraxella catarrhalis; conditions: 5×10^5 CFU/mL
# How it was run: as §1
# Proteus mirabilis = experiment: MIC against Gram-negative bacteria: Proteus mirabilis; conditions: 5×10^5 CFU/mL
# How it was run: as §1
# Proteus vulgaris = experiment: MIC against Gram-negative bacteria: Proteus vulgaris; conditions: 5×10^5 CFU/mL
# How it was run: as §1
# Serratia marcescens = experiment: MIC against Gram-negative bacteria: Serratia marcescens; conditions: 5×10^5 CFU/mL
# How it was run: as §1
# [1] = E. coli BL21, 10 h cultivation at 37° C.
# [2] = P. aeruginosa, 10 h cultivation at 37° C.
# [3] = K. pneumonia, 10 h cultivation at 37° C.
# [4] = E. cloacae, 10 h cultivation at 37° C.
# [5] = A. hydrophila, 10 h cultivation at 37° C.
# [6] = C. diversus, 10 h cultivation at 37° C.
# [7] = M. catarrhalis, 10 h cultivation at 37° C.
# [8] = P. mirabilis, 10 h cultivation at 37° C.
# [9] = P. vulgaris, 10 h cultivation at 37° C.
# [10] = S. marcescens, 10 h cultivation at 37° C.
# [11] = E. coli BL21, 96-well plate, 37° C., 10 h
# [12] = Pseudomonas aeruginosa, 96-well plate, 37° C., 10 h
# [13] = Klebsiella pneumonia, 96-well plate, 37° C., 10 h
# [14] = Enterobacter cloacae, 96-well plate, 37° C., 10 h
# [15] = Aeromonas hydrophila, 96-well plate, 37° C., 10 h
# [16] = Citrobacter diversus, 96-well plate, 37° C., 10 h
# [17] = Moraxella catarrhalis, 96-well plate, 37° C., 10 h
# [18] = Proteus mirabilis, 96-well plate, 37° C., 10 h
# [19] = Proteus vulgaris, 96-well plate, 37° C., 10 h
# [20] = Serratia marcescens, 96-well plate, 37° C., 10 h
# [21] = 10 h cultivation at 37° C., two-fold serial dilution
substance,measurement,setting,value
PRT599 (CECDPDGTISGGICVSHSDPALGSVAGQCLCKENVEGAKCDQCKPNHYGLSATDPLGCQP; listed as Homo sapiens),MIC,E. coli DH5α,12.5 µg/mL
same,MIC E. coli BL21,"E. coli BL21; 96-well plate, 37° C., 10 h",25 µg/mL
same,MIC P. aeruginosa,"Pseudomonas aeruginosa; 96-well plate, 37° C., 10 h",50 µg/mL
same,MIC K. pneumonia,"Klebsiella pneumonia; 96-well plate, 37° C., 10 h",12.5 µg/mL
same,MIC E. cloacae,"Enterobacter cloacae; 96-well plate, 37° C., 10 h",50 µg/mL
same,MIC A. hydrophila,"Aeromonas hydrophila; 96-well plate, 37° C., 10 h",12.5 µg/mL
same,MIC C. diversus,"Citrobacter diversus; 96-well plate, 37° C., 10 h",50 µg/mL
same,MIC M. catarrhalis,"Moraxella catarrhalis; 96-well plate, 37° C., 10 h",12.5 µg/mL
same,MIC P. mirabilis,"Proteus mirabilis; 96-well plate, 37° C., 10 h",50 µg/mL
same,MIC P. vulgaris,"Proteus vulgaris; 96-well plate, 37° C., 10 h",12.5 µg/mL
same,MIC S. marcescens,"Serratia marcescens; 96-well plate, 37° C., 10 h",50 µg/mL
PRT317 (VTDYCQLVRYLCQNGRCIPTPGSCRCECNKGFQLDLRGECI; listed as Homo sapiens),MIC,E. coli DH5α,12.5 µg/mL
same,MIC,E. coli BL21; [1],50 µg/mL
same,MIC,Pseudomonas aeruginosa; [2],12.5 µg/mL
same,MIC,Klebsiella pneumonia; [3],50 µg/mL
same,MIC,Enterobacter cloacae; [4],12.5 µg/mL
same,MIC,Aeromonas hydrophila; [5],25 µg/mL
same,MIC,Citrobacter diversus; [6],12.5 µg/mL
same,MIC,Moraxella catarrhalis; [7],25 µg/mL
same,MIC,Proteus mirabilis; [8],12.5 µg/mL
same,MIC,Proteus vulgaris; [9],12.5 µg/mL
same,MIC,Serratia marcescens; [10],12.5 µg/mL
PRT167 (TPNPCENDGVCTDIGGDFRCRCPAGFIDKTC; listed as Homo sapiens),MIC,E. coli DH5α,12.5 µg/mL
same,MIC (μg/mL) E. coli BL21,E. coli BL21; [1],50 µg/mL
same,MIC (μg/mL) P. aeruginosa,Pseudomonas aeruginosa; [2],12.5 µg/mL
same,MIC (μg/mL) K. pneumonia,Klebsiella pneumonia; [3],50 µg/mL
same,MIC (μg/mL) E. cloacae,Enterobacter cloacae; [4],12.5 µg/mL
same,MIC (μg/mL) A. hydrophila,Aeromonas hydrophila; [5],12.5 µg/mL
same,MIC (μg/mL) C. diversus,Citrobacter diversus; [6],25 µg/mL
same,MIC (μg/mL) M. catarrhalis,Moraxella catarrhalis; [7],12.5 µg/mL
same,MIC (μg/mL) P. mirabilis,Proteus mirabilis; [8],25 µg/mL
same,MIC (μg/mL) P. vulgaris,Proteus vulgaris; [9],25 µg/mL
same,MIC (μg/mL) S. marcescens,Serratia marcescens; [10],12.5 µg/mL
PRT122 (CAPCQGNGVPVLKGSRCDCICPVGSQGLACE; listed as Homo sapiens),MIC,E. coli DH5α,12.5 µg/mL
same,MIC (μg/mL) E. coli BL21,E. coli BL21; [11],12.5 µg/mL
same,MIC (μg/mL) P. aeruginosa,Pseudomonas aeruginosa; [12],12.5 µg/mL
same,MIC (μg/mL) K. pneumonia,Klebsiella pneumonia; [13],12.5 µg/mL
same,MIC (μg/mL) E. cloacae,Enterobacter cloacae; [14],12.5 µg/mL
same,MIC (μg/mL) A. hydrophila,Aeromonas hydrophila; [15],12.5 µg/mL
same,MIC (μg/mL) C. diversus,Citrobacter diversus; [16],12.5 µg/mL
same,MIC (μg/mL) M. catarrhalis,Moraxella catarrhalis; [17],25 µg/mL
same,MIC (μg/mL) P. mirabilis,Proteus mirabilis; [18],12.5 µg/mL
same,MIC (μg/mL) P. vulgaris,Proteus vulgaris; [19],25 µg/mL
same,MIC (μg/mL) S. marcescens,Serratia marcescens; [20],12.5 µg/mL
PRT1257 (CMNKDHGCAHICRETPKGGVACDCRPGFDLAQNQKDC; listed as Homo sapiens),MIC,E. coli DH5α,12.5 µg/mL
same,MIC against E. coli BL21,E. coli BL21; [11],50 µg/mL
same,MIC against P. aeruginosa,Pseudomonas aeruginosa; [12],25 µg/mL
same,MIC against K. pneumonia,Klebsiella pneumonia; [13],12.5 µg/mL
same,MIC against E. cloacae,Enterobacter cloacae; [14],25 µg/mL
same,MIC against A. hydrophila,Aeromonas hydrophila; [15],25 µg/mL
same,MIC against C. diversus,Citrobacter diversus; [16],50 µg/mL
same,MIC against M. catarrhalis,Moraxella catarrhalis; [17],12.5 µg/mL
same,MIC against P. mirabilis,Proteus mirabilis; [18],50 µg/mL
same,MIC against P. vulgaris,Proteus vulgaris; [19],12.5 µg/mL
same,MIC against S. marcescens,Serratia marcescens; [20],50 µg/mL
PRT1175 (AEHACLSDPCHNRGSCKETSLGFECECSPGWTGPTCS; listed as Homo sapiens),MIC,E. coli DH5α,12.5 µg/mL
same,MIC E. coli BL21,E. coli BL21; [21],25 µg/mL
same,MIC P. aeruginosa,Pseudomonas aeruginosa; [21],50 µg/mL
same,MIC K. pneumonia,Klebsiella pneumonia; [21],25 µg/mL
same,MIC E. cloacae,Enterobacter cloacae; [21],12.5 µg/mL
same,MIC A. hydrophila,Aeromonas hydrophila; [21],50 µg/mL
same,MIC C. diversus,Citrobacter diversus; [21],25 µg/mL
same,MIC M. catarrhalis,Moraxella catarrhalis; [21],12.5 µg/mL
same,MIC P. mirabilis,Proteus mirabilis; [21],25 µg/mL
same,MIC P. vulgaris,Proteus vulgaris; [21],50 µg/mL
same,MIC S. marcescens,Serratia marcescens; [21],25 µg/mL
PRT177 (GPGPCDGNPCANGGSCSETPRSFECTCPRGFYGLRCE; listed as Homo sapiens),MIC,E. coli DH5α,50 µg/mL
same,MIC (μg/mL) E. coli BL21,E. coli BL21; [1],25 µg/mL
same,MIC (μg/mL) P. aeruginosa,Pseudomonas aeruginosa; [2],12.5 µg/mL
same,MIC (μg/mL) K. pneumonia,Klebsiella pneumonia; [3],25 µg/mL
same,MIC (μg/mL) E. cloacae,Enterobacter cloacae; [4],50 µg/mL
same,MIC (μg/mL) A. hydrophila,Aeromonas hydrophila; [5],25 µg/mL
same,MIC (μg/mL) C. diversus,Citrobacter diversus; [6],12.5 µg/mL
same,MIC (μg/mL) M. catarrhalis,Moraxella catarrhalis; [7],25 µg/mL
same,MIC (μg/mL) P. mirabilis,Proteus mirabilis; [8],50 µg/mL
same,MIC (μg/mL) P. vulgaris,Proteus vulgaris; [9],25 µg/mL
same,MIC (μg/mL) S. marcescens,Serratia marcescens; [10],12.5 µg/mL
